One experiment concerns the target T1, BCL9/β-catenin (Homo sapiens, UniProt P35222).
T1 sequence (P35222 1-781): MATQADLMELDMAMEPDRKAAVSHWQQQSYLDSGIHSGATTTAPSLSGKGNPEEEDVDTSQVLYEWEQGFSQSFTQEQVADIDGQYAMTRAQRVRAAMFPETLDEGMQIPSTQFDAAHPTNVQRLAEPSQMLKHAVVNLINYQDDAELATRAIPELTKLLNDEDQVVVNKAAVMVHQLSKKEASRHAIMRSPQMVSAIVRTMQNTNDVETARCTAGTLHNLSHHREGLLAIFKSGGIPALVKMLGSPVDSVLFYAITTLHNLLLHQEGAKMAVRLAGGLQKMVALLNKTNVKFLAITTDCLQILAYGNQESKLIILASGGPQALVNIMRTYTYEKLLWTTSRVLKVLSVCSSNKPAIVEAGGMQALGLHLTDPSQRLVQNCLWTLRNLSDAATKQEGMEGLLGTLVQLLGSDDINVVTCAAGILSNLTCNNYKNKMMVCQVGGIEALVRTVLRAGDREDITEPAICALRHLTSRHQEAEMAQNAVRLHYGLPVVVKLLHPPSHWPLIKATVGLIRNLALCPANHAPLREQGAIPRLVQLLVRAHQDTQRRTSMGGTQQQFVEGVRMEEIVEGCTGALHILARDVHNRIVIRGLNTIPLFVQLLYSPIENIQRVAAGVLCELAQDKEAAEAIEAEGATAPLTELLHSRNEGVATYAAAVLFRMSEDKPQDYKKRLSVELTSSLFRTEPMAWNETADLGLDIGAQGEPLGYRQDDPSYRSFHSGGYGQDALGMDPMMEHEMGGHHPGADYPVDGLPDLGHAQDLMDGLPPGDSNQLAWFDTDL
Nature of the experiment: FP (BCL-9 avidity) fluorescence polarization competition assay with beta-catenin and FAP-Bcl9 tracer. Format: binding. The protocol:
Incubating for 2 hours on a horizontal shaker. Then adding 2 nM FAP-Bcl9 tracer to each well, and after incubation for 2H on a horizontal shaker, measuring the […].
(Polarisation of emitted light reports the rotation of a fluorescent probe.)

In a further experiment the test system is HCT116 cells. Nature of the experiment: CCK8 cell viability assay in HCT116 cells. In kind it is cell-based. Particulars: Homo sapiens, HCT-116; Table 2, HCT116 cells, 24 hours. The protocol:
• 1. HCT116 cell plating
Digesting, counting, and plating the cells in 96-well plates (flat bottom, transparent) with 10,000 cells/100 ul DMEM (10% FBS) per well; • 2. Observing the state of cells on the next day, and start dosing after cell attachment is intact; • 3. diluting 514 with DMEM (2% FBS) by gradient dilution with concentrations of 20 μM, 10 μM, 5 μM, 2.5 μM, 1.25 μM, 0.625 μM, 0.3125 μM, 0.15625 μM, 0 μM (equal volume of DMSO); • 4. Adding 100 μl of the above different concentrations of 514 to each well, and making two repeat wells for each concentration gradient; leaving three blank wells (only adding DMEM 2% FBS culture medium without cells). • 5. Culturing at 37° C. for 24 hours; • 6. Adding 10 μl CCK-8 enhanced solution to each well: due to the small amount added of CCK-8 in each well, it may cause errors resulting from the reagent staining on the wall of the well. It is recommended to gently tap the culture plate after adding the reagent to help mixing; • 7. Incubating in the incubator for 0.5-4 hours: the amount of Formazan formed is not the same for different cell types, in most cases, incubation for 1 hour is enough. If the color development is not enough, incubation can be continued to determine optimal conditions. • 8. Measuring the absorbance at 450 nm and 600 nm (excluding the interference of the background color of the reagent and the absorbance value of the well plate itself); • 9. Using OD450 nm-OD600 nm for the final absorbance, and calculating the inhibition rate:
[formula] • As: absorbance of experimental wells (medium containing cells, CCK-8, drug to be tested); • Ac: absorbance of control wells (medium containing cells, CCK-8, and no drug to be tested); • Ab: absorbance of blank wells (medium without cells and drug to be tested, CCK-8). (3) qPCR • 1. HCT116 cell plating
For orientation: Formazan colour is commonly taken as a measure of viable cells.

A further experiment has as its system Human AXIN2. Nature of the experiment: qPCR of AXIN2 expression in HCT116 cells. Particulars: HCT-116, Table 2, HCT116 cells, AXIN2 vs β-actin, 24 hours. In kind it is cell-based. The protocol:
Cells were digesting, counting, and plating cells in 24-well plates (flat bottom, clear), with 3×10^5 cells/500 ul DMEM (10% FBS) per well. • 2. Observing the state of cells on the next day, and start dosing after cell attachment is intact
Diluting 514 with DMEM (2% FBS) by gradient dilution with concentrations of 20 μM, 10 μM, 5 μM, 2.5 μM, 1.25 μM, 0.625 μM, 0.3125 μM, 0.15625 μM, 0 μM (equal volume DMSO)
Adding 500 μl of the above different concentrations of 514 to each well, and setting a single well for each concentration gradient except three repeat wells for the 0 μM concentration (double wells for qPCR). • 3. Incubating at 37° C. for 24 hours • 4. Discarding the supernatant, washing once with PBS, and adding trizol at 500/well • 5. RNA extraction (step omitted) • 6. Reverse transcription (step omitted, according to the kit) • 7. qPCR (step omitted, following the kit steps)
• 8. calculation of inhibition rate

The test system of experiment [1] is Human COL1 (collagen type I). Nature of the experiment: Transformation of fibroblasts into myofibroblasts (anti-fibrosis test), collagen type I. Format: cell-based. Particulars: HFL1 cells, 20 ng/ml TGF-β1, 48 hours, supernatant. The protocol:
(§1) (4) Transformation of Fibroblasts into Myofibroblasts (Anti-Fibrosis Test) • I. Main materials
(§2) HFL1 medium: F12K+10% FBS, adherent growth • II. Experimental Setup • 1. Normal group (medium only), model group (induced by 20 ng/ml TGF-β1), test sample group (20 ng/ml TGF-β1+ compound with different final concentration) • 2. 5 compounds, 3 concentration gradients, each gradient 2 repeat wells. • II. Experimental steps • 1. Digesting and counting, 5e^5 cells/well/2 ml, and seeded in 6-well plates. • 2. After adherent, adding TGF-β1 at a final concentration of 20 ng/ml and stimulating for 48 hours. Adding compounds with different final concentrations (0, 5 uM, 20 uM). • 3. Collecting the supernatant, and detecting the amount of col1 and col3 in the supernatant by kit. Lysing the cells with lysate solution, centrifuging, and collecting the supernatant. • 4. Detection of a-SMA and other genes by qPCR ii. Test Results • (1) BCL-9 affinity results are shown in Tables 1.1, 1.2, and 1.3, and the test methods were as described above.

Another experiment relates to collagen type III. Nature of the experiment: Transformation of fibroblasts into myofibroblasts (anti-fibrosis test), collagen type III. Format: cell-based. Particulars: Homo sapiens, Fibroblast; HFL1 cells, 20 ng/ml TGF-β1, 48 hours, supernatant; read-out: IC50 Human COL1 (collagen type III). The protocol:
as §1, §2

The next experiment has as its system Human a-SMA. Nature of the experiment: Transformation of fibroblasts into myofibroblasts (anti-fibrosis test), a-SMA. In kind it is cell-based. Particulars: HFL1 cells, 20 ng/ml TGF-β1, 48 hours, qPCR. On the procedure: as §1, §2
[2] abbreviates: Table 2, FP (BCL-9 affinity), read-out: FP.
Where [3] appears, read: Table 1.3, compounds 15-20, read-out: BCL-9 avidity FP IC50.

Structures are written as SMILES. Like-named read-outs stand apart in the source and are kept apart here.

As for `CC(C)(Oc1cccc(N2CCC[C@@H](C(=O)N(Cc3ccc(-c4cn[nH]c4)cc3)C3CC3)C2)c1Cl)C(=O)N1CCNCC1` [Compound 7, (3R)-1-(2-chloro-3-{[2-methyl-1-oxo-1-(piperazin-1-yl)propan-2-yl]oxy}phenyl)-N-cyclopropyl-N-{[4-(1H-pyrazol-4-yl)phenyl]methyl}piperidine-3-carboxamide], the IC50 on BCL9/β-catenin (Table 1.2, compounds 7-16, read-out: BCL-9 avidity FP IC50) was 3.15 µM; on BCL9/β-catenin (setting [2]) it was 3.15 µM; in the experiment on HCT116 cells, 1050 nM; in the experiment with Human AXIN2 it was 1.46 µM; in experiment [1] it was 10 to 20 µM; in the experiment with collagen type III it was 10 to 20 µM. Further, the IC50 with Human a-SMA was in the range of 20 to 30 µM.

As to `CC(C)(Oc1cccc(N2CCC[C@@H](C(=O)N(Cc3ccc(-c4ccccc4)c(Cl)c3)C3CC3)C2)c1)C(=O)N1CCNCC1` [Compound 14, (3R)-N-[(3-chloro-4-phenylphenyl)methyl]-N-cyclopropyl-1-(3-{[2-methyl-1-oxo-1-(piperazin-1-yl)propan-2-yl]oxy}phenyl)piperidine-3-carboxamide], the values for the IC50 on BCL9/β-catenin (setting [2]), in the experiment on HCT116 cells and with Human AXIN2 were 10 to 50 µM, 10000 to 50000 nM and 10 to 50 µM, respectively.

On to `CC(C)(Nc1cccc(N2CCC[C@@H](C(=O)N(Cc3ccc(-c4cn[nH]c4)cc3)C3CC3)C2)c1)C(=O)N1CCNCC1` [Compound 15, (3R)-N-cyclopropyl-1-(3-{[2-methyl-1-oxo-1-(piperazin-1-yl)propan-2-yl]amino}phenyl)-N-{[4-(1H-pyrazol-4-yl)phenyl]methyl}piperidine-3-carboxamide], for which the IC50 on BCL9/β-catenin (setting [3]) was 10 to 20 µM; at BCL9/β-catenin (setting [2]), 10 to 20 µM; in the experiment with HCT116 cells it was 2420 nM; in the experiment on Human AXIN2, 10 to 20 µM.

`CN(c1cccc(N2CCC[C@@H](C(=O)N(Cc3ccc(-c4cn[nH]c4)cc3)C3CC3)C2)c1)C(C)(C)C(=O)N1CCNCC1` [Compound 16, (3R)-N-cyclopropyl-1-(3-{methyl[2-methyl-1-oxo-1-(piperazin-1-yl)propan-2-yl]amino}phenyl)-N-{[4-(1H-pyrazol-4-yl)phenyl]methyl}piperidine-3-carboxamid]: the IC50 is 10 to 20 µM at BCL9/β-catenin (setting [3]), 10 to 20 µM at BCL9/β-catenin (setting [2]), 2790 nM with HCT116 cells and 10 to 20 µM in the experiment with Human AXIN2.

Consider `CC(C)(Oc1cccc(N2CCC[C@@H](NC(=O)N(Cc3ccc(-c4cn[nH]c4)cc3)C3CC3)C2)c1)C(=O)N1CCNCC1` [Compound 17, 1-cyclopropyl-3-[(3R)-1-(3-{[2-methyl-1-oxo-1-(piperazin-1-yl)propan-2-yl]oxy}phenyl)piperidin-3-yl]-1-{[4-(1H-pyrazol-4-yl)phenyl]methyl}urea], for which the IC50 in the experiment on HCT116 cells was 1840 nM; in the experiment on Human AXIN2, 4.67 µM; in experiment [1], 10 to 20 µM; in the experiment with collagen type III, 20 to 30 µM; in the experiment on Human a-SMA, 5 to 10 µM.

As for `CC(C)(Oc1cccc(N2CCC[C@@H](NC(=O)N(Cc3ccc(-c4cn[nH]c4)cc3)C3CC3)C2)c1)C(=O)NCCN` [Compound 18, N-(2-aminoethyl)-2-{3-[(3R)-3-{[cyclopropyl({[4-(1H-pyrazol-4-yl)phenyl]methyl})carbamoyl]amino}piperidin-1-yl]phenoxy}-2-methylpropanamide], the IC50 at BCL9/β-catenin (setting [3]) was 10 to 20 µM; on BCL9/β-catenin (setting [2]), 10 to 20 µM; with HCT116 cells, 3460 nM; with Human AXIN2 it was 2.54 µM.

Turning to `CC(C)(Oc1cccc(N2CCC[C@@H](NC(=O)N(Cc3ccc(-c4cn[nH]c4)cc3)C3CC3)C2)c1)C(=O)NCCCN` [Compound 19, N-(3-aminopropyl)-2-{3-[(3R)-3-{[cyclopropyl({[4-(1H-pyrazol-4-yl)phenyl]methyl})carbamoyl]amino}piperidin-1-yl]phenoxy}-2-methylpropanamide], the IC50 was 3260 nM in the experiment on HCT116 cells; 6.11 µM in the experiment on Human AXIN2; 5.9 µM in experiment [1]; 5 to 20 µM in the experiment on collagen type III; 5 to 20 µM with Human a-SMA.

The values above are taken from US20240391896A1 (Nantong Jutai Biotech Co., Ltd., priority 2021, published 2024).
